Laboratory results from article PMC11475664, “Alpha-glucosidase inhibitory compounds from Vietnamese lichen Usnea baileyi: in vitro and in silico aspects” (RSC Advances, 2024).
Converted amounts (≈) assume the structure as drawn. Like-named read-outs stand apart in the source and are kept apart here.

Key:
[1] = target: alpha-glucosidase; settings: cited from earlier work
[2] = system: alpha-glucosidase; experiment: Inhibitory type assay of 1e on alpha-glucosidase (Lineweaver–Burk plots, pNPG substrate); type: biochemical, yeast
Method: Replacing the imine group in 1a and 1b for the aldehyde group in 1 enhances the activity. […] In contrast, the bromine atoms within a depsidone skeleton (1c, 1d, and 6a) decrease the activity. […] At concentrations of 0, 1.82, 3.64, 7.28, and 14.57 μM of 1e, the activity was evaluated. […] This type was identical to that of parmosidone F.[18]
The mechanisms of inhibition of alpha-glucosidase by 1e were determined by Lineweaver–Burk plots using methods similar to those reported in the literature.[18] Enzyme inhibition due to various concentrations of 1e was evaluated by monitoring the effects of different substrate concentrations. For Lineweaver–Burk double reciprocal plots 1/enzyme velocity (1/V) vs. 1/substrate concentration (1/[S]), the inhibition type was determined using various concentrations of pNPG (1 mM, 2 mM, and 4 mM) as a substrate in the presence of different concentrations of the test compounds (0, 1.82, 3.64, 7.28, and 14.57 μM for 1e). The experiments were carried out in 3 replicates. The mixtures were incubated at 37 °C and the optical density was measured at 405 nm every 1 minutes for 30 minutes with the ELx800 Absorbance Microplate Reader (BioTek Instruments, Inc., Vermont, USA). Optimal concentrations of the tested compounds were chosen based on the IC50 values. […]

[3] = system: HepG2 cells; experiment: Cytotoxicity assay (MTT, 72 h) on HepG2; type: cell-based; settings: Homo sapiens, read-out: HepG2 IC50
Method: (§1) Table S2. Cytotoxicity of compounds 1-6, 11, 1a-1e, and 6a […]
(§2) The method used followed that reported by Nguyen et al. (2022). Briefly, HepG2 and Hek293 cells in a complete medium containing DMEM (HyClone, Cytiva, USA) and 10% fetal bovine serum (FBS) were seeded into a 96-well plate at 5 × 10^4 cells per well. The cells were then incubated at 37°C with 5% CO2. After culturing for 24 h, the old medium was replaced by diluted compounds (in DMSO), positive control Doxorubicin (DOX, Fesenius Kabi, Germany), and negative control dimethyl sulfoxide (DMSO, Sigma-Aldrich, Germany). After 72 h of treatment, MTT (3-(4,5-Dimethyl-2-thiazolyl)-2,5-diphenyl-2H-tetrazolium bromide) was added into each well of the test plate. The plate was incubated at 37°C with 5% CO2 for another 3 h. DMSO was used to dissolve the crystals from the interaction between MTT and viable cells. The absorbance of samples was read at 570 nm by the ELISA Reader (BioTek, USA). Cell death (% inhibition) was estimated by the following formula:
(§3) % Inhibition = 100 − [100 × (A Sample – A B1)/(ADMSO – A B2)]
(§4) Where, ASample: Absorbance of sample, ADMSO: Absorbance of negative control, AB1: Absorbance of blank of sample, AB2: Absorbance of blank of DMSO. The IC50 value and the inhibitory chart were respectively calculated and built using GraphPad Prism software (version 8.0.1, Insightful Science LLC, […]
(§5) Ref: Nguyen HH, Aree T, Nguyen HT, et al. Diorygmones A-B, two new guaiane-sesquiterpenes from the cultured lichen mycobiont of Diorygma sp. Natural Product Research. Published online February 1,

[4] = system: Hek293 cells; experiment: Cytotoxicity assay (MTT, 72 h) on Hek293; type: cell-based; settings: Homo sapiens, read-out: Hek293 IC50
Method: as §1, §2, §3, §4, §5

[5] = system: yeast alpha-glucosidase; experiment: Alpha-glucosidase inhibition assay; type: biochemical; settings: for IC50: yeast alpha-glucosidase
Text: Evaluation of the inhibitory activity of compounds against yeast alpha-glucosidase followed a previous procedure.[30]

[6] = Cytotoxicity assay (MTT, 72 h) on HepG2; type: cell-based; settings: human
Method: as §1, §2, §3, §4, §5

[7] = Cytotoxicity assay (MTT, 72 h) on Hek293; type: cell-based; settings: human
Method: as §1, §2, §3, §4, §5

[8] = read-out: IC50, alpha-glucosidase inhibition of natural analogs of 1e (Fig. 9)
[9] = liver cancer cell line HepG2, MTT, 72 h, Table S2
[10] = normal cells Hek293, MTT, 72 h, Table S2
[11] = read-out: IC50, alpha-glucosidase inhibition of related synthetic analogs (Fig. 8)
[12] = read-out: IC50, alpha-glucosidase inhibition, previously reported

## CC(=O)C=Cc1c(O)cc(C)c2c1Oc1c(c(Cc3c(C)cc(O)cc3O)c(O)c3c1C(O)OC3=O)OC2=O (stereo not drawn) [Parmosidone G]
[1]; [8]
  IC50: 4.3 µM

## Cc1cc(O)c(C=O)c2c1C(=O)Oc1c(C)c(C(=O)O)c(O)c(Cc3c(O)cc(O)c(Cc4c(O)c(C(=O)O)c(C)c5c4Oc4c(C=O)c(O)cc(C)c4C(=O)O5)c3C)c1O2 [Compound 1e, 6,6′-((4,6-dihydroxy-2-methyl-1,3-phenylene)bis(methylene))bis(4-formyl-3,7-dihydroxy-1,9-dimethyl-11-oxo-11H-dibenzo[b,e][1,4]dioxepine-8-carboxylic acid)]
[2]; Lineweaver–Burk plots, 0, 1.82, 3.64, 7.28, 14.57 μM of 1e
  inhibition type: mixed-mode inhibitor
[2]; secondary plot, Fig. 4B, read-out: Ki, inhibition constant of binding with the free enzyme
  Ki: 6.65 ± 0.48 µM
[3]; [9]
  IC50: > 100 µg/mL
[4]; [10]
  IC50: > 100 µg/mL
[5]; compared with 1
  alpha-glucosidase inhibition, fold stronger than 1: seven-fold
[5]
  IC50: 10.4 ± 0.4 µM

## COc1cccc2c1C(=O)c1c(O)c3c(c(O)c1C2=O)C[C@@](O)(C(=O)CO)C[C@@H]3O[C@H]1C[C@H](N)[C@H](O)[C@H](C)O1 [Doxorubicin, reference compound]
[3]; [9]
  IC50: 1.89 ± 0.03 µg/mL (≈ 3.48 µM)
[4]; [10]
  IC50: 2.13 ± 0.01 µg/mL (≈ 3.92 µM)

## Cc1c(Br)c(O)c(C=O)c2c1C(=O)Oc1c(Br)c(O)c3c(c1O2)C(O)OC3=O (stereo not drawn) [V]
[1]; [11]
  IC50: 14.3 µM

## COC(=O)[C@]12Oc3ccc(-c4ccc5c(c4O)C(=O)[C@@H]4CC[C@@H](C)[C@H](O)[C@]4(C(=O)OC)O5)c(O)c3C(=O)C1=C(O)C[C@H](C)[C@H]2O [Compound 11, eumitrin A1]
[3]; HepG2, 72 h
  IC50: 38.8 ± 0.5 µg/mL (≈ 62.1 µM)
[6]
  IC50 at 72 h: 62.1 µM
[4]; HEK293, 72 h
  IC50: 37.6 ± 4.3 µg/mL (≈ 60.2 µM)
[7]
  IC50 at 72 h: 60.3 µM
[5]
  IC50: 130 ± 2 µM

## Cc1cc(O)c(C=O)c2c1C(=O)Oc1c(C)c(O)c3c(c1O2)C(O)OC3=O (stereo not drawn) [Compound 6, norstictic acid]
[3]; [9]
  IC50: > 100 µg/mL
[4]; [10]
  IC50: > 100 µg/mL
[5]
  IC50: 50.7 ± 2.7 µM

## Cc1cc(OC(=O)c2c(O)cc(O)c(Cc3c(O)c(C(=O)O)c(C)c4c3Oc3c(C=O)c(O)cc(C)c3C(=O)O4)c2C)cc(O)c1C(=O)O [Cristifone A]
[1]; [8]
  IC50: 21.5 µM

## COC(=O)c1c(C)c(Cc2c(O)cc(C)c3c2Oc2c(C=CC(C)=O)c(O)cc(C)c2C(=O)O3)c(O)c(C)c1O [Parmosidone H]
[1]; [8]
  IC50: 17.6 µM

## COc1c(C)c2c(c(C)c1Cl)Oc1c(C)c(O)c(Cl)c(C)c1C(=O)O2 [Compound 5, vicanicin]
[3]; [9]
  IC50: > 100 µg/mL
[4]; [10]
  IC50: > 100 µg/mL
[5]
  IC50: > 200 µM

## Cc1cc(O)c(/C=N/Nc2ccc(Br)cc2)c2c1C(=O)Oc1c(CO)c(O)c3c(c1O2)C(O)OC3=O (stereo not drawn) [I, (E)-11-((2-(4-bromophenyl)hydrazineylidene)methyl)-1,4,10-trihydroxy-5-(hydroxymethyl)-8-methyl-7H-benzo[6,7][1,4]dioxepino[2,3-e]isobenzofuran-3,7(1H)-dione]
[1]
  inhibition type, previously reported: non-competitive inhibitors
[1]; [11]
  IC50: 11.3 µM

## Cc1c(Br)c(O)c(Br)c2c1Oc1c(Br)c(O)c(Br)c(C)c1C(=O)O2 [Compound 1c, 2,4,7,9-tetrabromo-3,8-dihydroxy-1,6-dimethyl-11H-dibenzo[b,e][1,4]dioxepin-11-one]
[3]; [9]
  IC50: 76.5 ± 1.07 µg/mL (≈ 130 µM)
[4]; [10]
  IC50: 58.9 ± 2.84 µg/mL (≈ 100 µM)
[5]
  IC50: 80.7 ± 1.8 µM

## Cc1c(Br)c(O)c(Br)c2c1C(=O)Oc1c(CO)c(O)c3c(c1O2)C(O)OC3=O (stereo not drawn) [IV]
[1]; [11]
  IC50: 15.6 µM

## Cc1cc(O)cc(O)c1Cc1c(O)c(C(=O)O)c(C)c2c1Oc1c(C=O)c(O)cc(C)c1C(=O)O2 [Parmosidone K]
[1]; [8]
  IC50: 6.1 µM

## CC(=O)OCc1c(O)c(Br)c(C)c2c1OC(=O)c1c(C)c(Br)c(O)c(Br)c1O2 [Compound 1d, (2,4,7-tribromo-3,8-dihydroxy-1,6-dimethyl-11-oxo-11H-dibenzo[b,e][1,4]dioxep-in-9-yl)methyl acetate]
[3]; [9]
  IC50: 86.7 ± 0.68 µg/mL
[4]; [10]
  IC50: 61.1 ± 2.71 µg/mL
[5]
  IC50: 91.8 ± 1.5 µM

## Cc1c(Cl)c(O)c(C=O)c(O)c1C(=O)O [Compound 10, 5-chlorohaematommic acid]
[5]
  IC50: > 200 µM

## COc1cc(C)c(C(=O)Oc2cc(C)c(C(=O)O)c(O)c2C)c(OC)c1C [Compound 7, diffractaic acid]
[1]; [12]
  IC50: 420 µM
[5]
  IC50: > 200 µM

## Cc1c(Br)c(O)c(Br)c2c1C(=O)Oc1c(CO)c(O)c(Br)c(C=O)c1O2 [III]
[1]; [11]
  IC50: 16.4 µM

## Cc1cc(O)cc(O)c1Cc1c(O)c2c(c3c1OC(=O)c1c(C)cc(O)c(C=O)c1O3)C(O)OC2=O (stereo not drawn) [Parmosidone F]
[1]
  inhibition type, previously reported: mixed-mode inhibitor
[1]; [8]
  IC50: 2.2 µM

## Cc1cc(O)c(C=O)c(O)c1 [Compound 9, atranol]
[1]; [12]
  IC50: 559 µM
[5]
  IC50: > 200 µM

## Cc1cc(O)c(C=O)c(O)c1Cc1c(O)c(C(=O)O)c(C)c2c1Oc1c(C=O)c(O)cc(C)c1C(=O)O2 [Cristifone B]
[1]
  inhibition type, previously reported: non-competitive inhibitors
[1]; [8]
  IC50: 18.4 µM

## COc1cc(C)c(C(=O)Oc2cc(C)c(C(=O)O)c(O)c2C)c(O)c1C [Compound 8, barbatic acid]
[5]
  IC50: > 200 µM

## Cc1cc(O)c(/C=N/Nc2ccc(Cl)cc2)c2c1C(=O)Oc1c(CO)c(O)c3c(c1O2)C(O)OC3=O (stereo not drawn) [II]
[1]; [11]
  IC50: 19.4 µM

## COc1cc(C)c2c(c1C=O)Oc1c(c(C)c(O)c3c1C(OC)OC3=O)OC2=O (stereo not drawn) [Compound 2, 8′-methylstictic acid]
[3]; [9]
  IC50: > 100 µg/mL
[4]; [10]
  IC50: > 100 µg/mL
[5]
  IC50: 41.8 ± 1.5 µM

## Cc1cc(O)c(/C=N/Nc2ccc(Br)cc2)c2c1C(=O)Oc1c(CO)c(O)c(C(=O)O)c(C)c1O2 [Compound 1b, (E)-4-((2-(4-bromophenyl)hydrazono)methyl)-3,8-dihydroxy-9-(hydroxymethyl)-1,6-dimethyl-11-oxo-11H-dibenzo[b,e][1,4]dioxepine-7-carboxylic acid]
[3]; [9]
  IC50: > 100 µg/mL
[4]; [10]
  IC50: > 100 µg/mL
[5]
  IC50: 20.7 ± 1.1 µM

## Cc1cc(O)c(/C=N/Nc2ccccc2)c2c1C(=O)Oc1c(CO)c(O)c(C(=O)O)c(C)c1O2 [Compound 1a, (E)-3,8-dihydroxy-9-(hydroxymethyl)-1,6-dimethyl-11-oxo-4-((2-phenylhydrazono-)methyl)-11H-dibenzo[b,e][1,4]dioxepine-7-carboxylic acid]
[3]; [9]
  IC50: > 100 µg/mL
[4]; [10]
  IC50: > 100 µg/mL
[5]
  IC50: 25.9 ± 2.2 µM

## Cc1cc(O)c(C=O)c2c1C(=O)Oc1c(CO)c(O)c(C(=O)O)c(C)c1O2 [Compound 1, protocetraric acid]
[1]; [12]
  IC50: 81.6 µM
[3]; [9]
  IC50: 63.6 ± 0.06 µg/mL (≈ 170 µM)
[4]; [10]
  IC50: 35.7 ± 2.4 µg/mL (≈ 95.5 µM)
[5]
  IC50: 70.6 ± 1.2 µM

## COC(=O)c1c(C)c(Cc2c(O)c(C(=O)O)c(C)c3c2Oc2c(C=O)c(O)cc(C)c2C(=O)O3)c(O)c(C=O)c1O [Parmosidone J]
[1]; [8]
  IC50: 10.7 µM

## COc1cc(C)c2c(c1C=O)Oc1c(C=O)c(C(=O)O)c(O)c(C)c1OC2=O [Compound 4, 4,6-diformyl-8-hydroxy-3-methoxy-1,9-dimethyl-11-oxo-11H-dibenzo[b,e][1,4]dioxepine-7-carboxylic acid]
[3]; [9]
  IC50: > 100 µg/mL
[4]; [10]
  IC50: > 100 µg/mL
[5]
  IC50: > 200 µM

## Cc1cc(OC(=O)c2c(C)cc(O)cc2O)cc(O)c1Cc1c(O)c(C(=O)O)c(C)c2c1Oc1c(C=O)c(O)cc(C)c1C(=O)O2 [Parmoferone A]
[1]; [8]
  IC50: 18.1 µM

## COc1cc(C)c2c(c1C=O)Oc1c(c(C)c(O)c3c1C(O)OC3=O)OC2=O (stereo not drawn) [Compound 3, stictic acid]
[3]; [9]
  IC50: > 100 µg/mL
[4]; [10]
  IC50: 33.9 ± 1.6 µg/mL (≈ 87.8 µM)
[5]
  IC50: 30.4 ± 1.4 µM

## Cc1c(O)c2c(c3c1OC(=O)c1c(C)c(Br)c(O)c(C=O)c1O3)C(O)OC2=O (stereo not drawn) [Compound 6a, 9-bromo-1,4,10-trihydroxy-5,8-dimethyl-3,7-dioxo-3,7-dihydro-1H-benzo[6,7][1,4]-dioxepino[2,3-e]isobenzofuran-11-carbaldehyde]
[3]; [9]
  IC50: > 100 µg/mL
[4]; [10]
  IC50: 88.2 ± 2.02 µg/mL (≈ 195 µM)
[5]
  IC50: 102 ± 1.8 µM
